In ChEMBL document CHEMBL1201862, “PubChem BioAssay data set” (2004):
“And” between values parts separate entries of the source, which are not always exact repeats. Equal values may be shown once. The source made the active and inactive calls.

How the values were obtained:
Cytochrome P450 2D6 = Cytochrome P450 2D6 (Homo sapiens, UniProt P10635);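 further: CYP2D6 member of a cytochrome P450 panel assay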
[1] = P. falciparum Dd2 growth inhibitors, dose response, SYBR Green, cherry-picked samples (AID 1159567); type: functional, cell-based
[2] = NIH-3T3 fibroblast cytotoxicity, dose response, cytotoxicity control, cell-based, fluorescence, Alamar Blue, secondary assay (AID 2327); type: functional;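 further: NIH-3T3 mouse fibroblasts cultured with fluconazole at 8 µg/mL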
[3] = C. albicans growth with fluconazole, confirmation, fluorescence, retest (AID 2467); type: functional, cell-based
Cytochrome P450 1A2 = target: T1, Cytochrome P450 1A2 (Homo sapiens, UniProt P05177);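 further: PubChem cytochrome P450 panel assay, CYP1A2 panel member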
T1 sequence (P05177 whole entry): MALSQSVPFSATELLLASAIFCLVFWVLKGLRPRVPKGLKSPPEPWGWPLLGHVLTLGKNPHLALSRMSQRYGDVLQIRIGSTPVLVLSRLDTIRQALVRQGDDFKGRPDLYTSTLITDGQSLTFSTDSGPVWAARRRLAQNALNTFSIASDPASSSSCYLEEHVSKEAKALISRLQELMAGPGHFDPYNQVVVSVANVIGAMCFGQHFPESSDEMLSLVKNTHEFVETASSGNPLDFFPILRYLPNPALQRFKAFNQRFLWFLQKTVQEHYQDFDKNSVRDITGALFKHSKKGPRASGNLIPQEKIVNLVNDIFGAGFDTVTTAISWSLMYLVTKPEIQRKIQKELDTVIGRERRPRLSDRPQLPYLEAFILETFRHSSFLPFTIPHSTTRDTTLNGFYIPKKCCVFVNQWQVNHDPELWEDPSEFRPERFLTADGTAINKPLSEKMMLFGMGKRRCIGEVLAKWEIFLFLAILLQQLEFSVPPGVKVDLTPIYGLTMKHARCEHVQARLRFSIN

Cytochrome P450 2C19 = Cytochrome P450 2C19 (Homo sapiens, UniProt P33261); test: Cytochrome panel assay with activity outcomes. Panel member name: p450-cyp2c19 Compounds with AC50 equal or less than 10 uM are considered active; type: functional
Chain of Cytochrome P450 2C19 (P33261 whole entry): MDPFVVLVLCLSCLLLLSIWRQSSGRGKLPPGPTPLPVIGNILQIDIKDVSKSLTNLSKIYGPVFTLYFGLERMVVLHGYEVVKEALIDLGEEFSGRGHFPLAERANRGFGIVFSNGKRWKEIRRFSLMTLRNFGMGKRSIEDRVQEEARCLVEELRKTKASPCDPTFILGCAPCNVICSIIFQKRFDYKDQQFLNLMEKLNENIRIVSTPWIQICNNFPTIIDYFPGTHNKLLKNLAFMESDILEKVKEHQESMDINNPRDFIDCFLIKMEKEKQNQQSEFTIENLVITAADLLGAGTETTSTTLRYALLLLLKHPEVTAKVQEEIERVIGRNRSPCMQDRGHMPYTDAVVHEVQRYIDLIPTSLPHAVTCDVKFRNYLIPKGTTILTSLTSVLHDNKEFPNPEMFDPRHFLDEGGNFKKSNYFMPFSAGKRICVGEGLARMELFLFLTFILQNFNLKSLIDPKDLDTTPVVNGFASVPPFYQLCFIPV

Cytochrome P450 2C9 [4] = target: T2, Cytochrome P450 2C9 (Homo sapiens, UniProt P11712)
T2 sequence (P11712 whole entry): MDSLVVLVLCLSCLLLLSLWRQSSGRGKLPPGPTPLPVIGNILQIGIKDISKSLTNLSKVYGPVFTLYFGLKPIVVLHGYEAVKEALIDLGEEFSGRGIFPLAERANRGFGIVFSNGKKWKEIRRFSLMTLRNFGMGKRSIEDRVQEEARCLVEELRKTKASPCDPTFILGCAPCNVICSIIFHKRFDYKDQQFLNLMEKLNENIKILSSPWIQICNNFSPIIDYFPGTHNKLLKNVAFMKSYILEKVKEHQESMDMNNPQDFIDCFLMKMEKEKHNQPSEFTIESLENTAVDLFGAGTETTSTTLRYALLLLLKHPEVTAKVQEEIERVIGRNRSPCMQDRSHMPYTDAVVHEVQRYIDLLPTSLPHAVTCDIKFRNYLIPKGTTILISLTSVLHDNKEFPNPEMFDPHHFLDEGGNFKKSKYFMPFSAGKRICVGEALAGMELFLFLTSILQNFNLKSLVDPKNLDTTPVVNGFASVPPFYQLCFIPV

[5] = target: FAD-linked sulfhydryl oxidase ALR (Homo sapiens, UniProt P55789); test: inhibitors of human ALR sulfhydryl oxidase, dose response, biochemical, H2O2 detection, luminescence, cherry-pick (AID 493248)
Chain of FAD-linked sulfhydryl oxidase ALR (P55789 whole entry): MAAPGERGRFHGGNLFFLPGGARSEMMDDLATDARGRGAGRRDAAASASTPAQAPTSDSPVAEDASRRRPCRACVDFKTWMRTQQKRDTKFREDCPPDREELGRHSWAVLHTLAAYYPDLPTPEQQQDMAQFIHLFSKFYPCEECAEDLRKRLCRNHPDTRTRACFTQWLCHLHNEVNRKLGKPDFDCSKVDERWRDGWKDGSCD

Cytochrome P450 3A4 = Cytochrome P450 3A4 (Homo sapiens, UniProt P08684);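 further: CYP3A4 tested as one member of a cytochrome P450 panel screen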
Chain of Cytochrome P450 3A4 (P08684 whole entry): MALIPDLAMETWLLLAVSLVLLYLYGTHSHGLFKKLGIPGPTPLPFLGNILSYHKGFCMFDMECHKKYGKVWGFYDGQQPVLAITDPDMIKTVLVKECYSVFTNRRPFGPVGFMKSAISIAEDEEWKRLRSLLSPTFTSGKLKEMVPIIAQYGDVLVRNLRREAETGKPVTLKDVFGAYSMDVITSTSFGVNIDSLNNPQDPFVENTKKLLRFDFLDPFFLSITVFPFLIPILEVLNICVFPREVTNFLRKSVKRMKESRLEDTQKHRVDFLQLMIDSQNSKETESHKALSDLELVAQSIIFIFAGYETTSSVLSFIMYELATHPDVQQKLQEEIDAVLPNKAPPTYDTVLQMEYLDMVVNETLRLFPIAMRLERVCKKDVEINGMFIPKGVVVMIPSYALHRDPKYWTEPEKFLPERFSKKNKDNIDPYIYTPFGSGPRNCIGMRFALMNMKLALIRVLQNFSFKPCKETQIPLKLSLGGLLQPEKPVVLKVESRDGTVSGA

Protein RecA = target: T3, Protein RecA (Mycobacterium tuberculosis, UniProt P9WHJ3); test: Fluorescence Cell-Free Homogeneous Dose Retest to Identify Inhibitors of RecA-Intein Splicing Activity. [Related pubchem assays (depositor defined):AID2097, AID2223, AID489010, AID492950]; type: functional
T3 sequence (P9WHJ3 whole entry): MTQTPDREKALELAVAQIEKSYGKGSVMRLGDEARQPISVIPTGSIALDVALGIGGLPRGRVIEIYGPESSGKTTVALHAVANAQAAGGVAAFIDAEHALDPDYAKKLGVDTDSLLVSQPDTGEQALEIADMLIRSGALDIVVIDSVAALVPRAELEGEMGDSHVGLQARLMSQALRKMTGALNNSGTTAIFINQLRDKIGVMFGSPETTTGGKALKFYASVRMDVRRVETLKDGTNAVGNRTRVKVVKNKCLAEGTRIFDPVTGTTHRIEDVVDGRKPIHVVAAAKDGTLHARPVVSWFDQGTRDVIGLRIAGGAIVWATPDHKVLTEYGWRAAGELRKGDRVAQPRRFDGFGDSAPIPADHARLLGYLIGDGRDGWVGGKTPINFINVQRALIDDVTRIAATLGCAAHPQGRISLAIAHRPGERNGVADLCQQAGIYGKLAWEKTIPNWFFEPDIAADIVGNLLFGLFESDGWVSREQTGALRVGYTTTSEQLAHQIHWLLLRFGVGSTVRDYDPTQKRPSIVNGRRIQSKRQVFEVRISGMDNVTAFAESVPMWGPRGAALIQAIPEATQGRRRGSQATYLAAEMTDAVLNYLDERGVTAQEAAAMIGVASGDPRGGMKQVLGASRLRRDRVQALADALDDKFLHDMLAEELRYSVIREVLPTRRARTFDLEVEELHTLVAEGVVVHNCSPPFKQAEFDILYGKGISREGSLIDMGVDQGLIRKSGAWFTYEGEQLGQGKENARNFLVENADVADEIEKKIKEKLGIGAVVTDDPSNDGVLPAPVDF

[6] = target: T4, Replicative DNA helicase DnaB (Mycobacterium tuberculosis, UniProt P9WMR3); test: DnaB intein splicing inhibitors, dose response, biochemical, cell-free fluorescence (AID 449749); type: functional
T4 sequence (P9WMR3 whole entry): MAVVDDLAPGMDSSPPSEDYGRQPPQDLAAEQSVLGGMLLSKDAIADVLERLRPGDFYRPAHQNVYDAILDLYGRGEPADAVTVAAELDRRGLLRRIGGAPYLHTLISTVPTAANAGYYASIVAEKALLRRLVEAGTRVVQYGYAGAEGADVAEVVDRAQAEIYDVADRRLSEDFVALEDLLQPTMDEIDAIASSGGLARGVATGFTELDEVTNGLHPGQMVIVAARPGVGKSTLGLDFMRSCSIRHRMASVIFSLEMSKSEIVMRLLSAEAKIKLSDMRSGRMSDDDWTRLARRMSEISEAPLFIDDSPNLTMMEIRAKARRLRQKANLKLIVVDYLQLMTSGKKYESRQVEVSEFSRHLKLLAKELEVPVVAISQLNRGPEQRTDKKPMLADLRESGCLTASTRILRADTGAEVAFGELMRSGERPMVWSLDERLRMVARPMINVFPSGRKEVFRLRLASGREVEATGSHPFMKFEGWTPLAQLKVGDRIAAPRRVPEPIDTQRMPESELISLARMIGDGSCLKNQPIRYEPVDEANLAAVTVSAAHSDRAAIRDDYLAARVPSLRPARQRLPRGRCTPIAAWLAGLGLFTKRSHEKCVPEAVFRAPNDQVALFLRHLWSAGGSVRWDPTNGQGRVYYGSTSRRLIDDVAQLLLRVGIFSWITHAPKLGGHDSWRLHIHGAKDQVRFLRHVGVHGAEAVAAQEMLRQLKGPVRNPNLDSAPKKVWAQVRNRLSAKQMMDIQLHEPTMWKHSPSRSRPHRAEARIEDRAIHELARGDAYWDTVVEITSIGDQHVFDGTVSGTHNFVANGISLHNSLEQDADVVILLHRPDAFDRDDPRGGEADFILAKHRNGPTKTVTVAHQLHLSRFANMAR

Large T antigen = Large T antigen (Simian virus 40, UniProt P03070); type: functional, Betapolyomavirus macacae;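 further: Confirmatory-stage PubChem screen for compounds that inhibit SV40 T antigen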
Chain of Large T antigen (P03070 whole entry): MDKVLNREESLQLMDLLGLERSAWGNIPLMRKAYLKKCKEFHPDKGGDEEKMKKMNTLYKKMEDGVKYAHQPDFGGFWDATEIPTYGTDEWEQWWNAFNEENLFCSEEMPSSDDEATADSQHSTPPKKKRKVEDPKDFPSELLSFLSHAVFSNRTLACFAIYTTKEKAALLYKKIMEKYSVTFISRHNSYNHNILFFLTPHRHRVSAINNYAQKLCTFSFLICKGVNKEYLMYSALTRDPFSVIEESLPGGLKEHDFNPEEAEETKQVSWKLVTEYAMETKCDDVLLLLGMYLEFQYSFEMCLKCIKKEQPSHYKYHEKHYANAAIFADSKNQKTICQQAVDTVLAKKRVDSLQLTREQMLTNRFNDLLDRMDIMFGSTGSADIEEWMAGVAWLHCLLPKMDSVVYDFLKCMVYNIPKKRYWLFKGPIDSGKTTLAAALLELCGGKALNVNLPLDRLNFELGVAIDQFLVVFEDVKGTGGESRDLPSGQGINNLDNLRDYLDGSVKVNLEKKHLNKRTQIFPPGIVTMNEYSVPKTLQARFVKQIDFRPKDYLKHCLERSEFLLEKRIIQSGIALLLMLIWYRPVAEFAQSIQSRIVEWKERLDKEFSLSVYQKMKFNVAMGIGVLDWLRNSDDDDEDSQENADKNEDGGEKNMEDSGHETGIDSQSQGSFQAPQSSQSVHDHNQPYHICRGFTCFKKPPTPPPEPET

Cytochrome P450 2C9 [7] = target: T2, Cytochrome P450 2C9; remark: listed apart in the source

Chain of Cytochrome P450 2D6 (P10635 whole entry): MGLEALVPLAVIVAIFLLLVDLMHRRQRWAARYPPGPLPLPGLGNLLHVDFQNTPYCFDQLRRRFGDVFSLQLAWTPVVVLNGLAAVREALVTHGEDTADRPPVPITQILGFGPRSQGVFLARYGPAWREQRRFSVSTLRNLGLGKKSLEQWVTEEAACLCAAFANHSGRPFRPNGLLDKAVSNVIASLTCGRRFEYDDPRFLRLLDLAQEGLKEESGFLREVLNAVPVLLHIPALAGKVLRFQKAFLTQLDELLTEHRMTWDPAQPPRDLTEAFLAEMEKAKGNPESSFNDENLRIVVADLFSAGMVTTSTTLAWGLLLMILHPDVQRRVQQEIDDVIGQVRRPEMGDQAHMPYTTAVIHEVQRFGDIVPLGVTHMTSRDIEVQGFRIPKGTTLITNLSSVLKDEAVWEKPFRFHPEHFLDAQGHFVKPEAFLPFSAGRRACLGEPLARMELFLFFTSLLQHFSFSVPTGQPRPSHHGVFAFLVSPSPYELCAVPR

## CN(C)Cc1ccccc1-c1cncnc1NC1CC1
Cytochrome P450 2D6
  AC50: 25.1 µM (inconclusive)

## COCC(=O)Nc1ccc2c(c1)OC[C@H](C)N(Cc1ccncc1)C[C@H](C)[C@@H](OC)CN(C)C2=O
[1]
  AC50: 25.2 µM (active)

## COC(=O)Cc1cc(=O)n(-c2nc3ccccc3s2)[nH]1
[2]
  EC50: > 150 µM (inactive)
[3]
  EC50: 21.7 µM (active)

## CC1CCCC(C)N1C(=O)c1ccccc1Nc1ccc(SC(F)F)cc1 (centres undefined)
Cytochrome P450 1A2
  AC50: 17.8 µM (inconclusive)
Cytochrome P450 2D6
  AC50: 0.631 µM (inconclusive)

## Cc1nn(Cc2c(F)c(F)c(F)c(F)c2F)c(C)c1NC(=O)c1cccc(COc2ccccc2Cl)c1
Cytochrome P450 1A2
  AC50: 17.8 µM (inconclusive)
Cytochrome P450 2D6
  AC50: 0.794 µM (inconclusive)

## CCOC(=O)N1CCN(C(=O)c2ccc(OC)c(OC)c2)CC1
Cytochrome P450 2C19; read-out: AC50
  AC50: 25.1 µM (inconclusive)
Cytochrome P450 2C9 [4]
  AC50: inconclusive

## COc1ccc2cc(CCl)c(Cl)nc2c1
[5]
  AC50: 5.78 µM (active)

## Cc1cnc(CNc2ncnc3ccc(-c4cccc(NS(C)(=O)=O)c4)cc23)cn1
Cytochrome P450 2C9 [4]
  AC50: inconclusive
Cytochrome P450 2D6
  AC50: 25.1 µM (inconclusive)

## Cc1ccc(-c2csc(N)n2)s1
[5]
  AC50: 0.732 µM (active)

## COc1ccc2c3c(n(C)c2c1)[C@H](CO)N(C(=O)C1CC1)CC31CN(C(=O)C2CCOCC2)C1
[1]
  AC50: 22.6 µM (active)

## O=c1c(-c2cc(F)cc(F)c2)nc2cncnc2n1C1CC1
Cytochrome P450 3A4
  AC50: 7.94 µM (inconclusive)
Cytochrome P450 2C9 [4]
  AC50: inconclusive

## COC(=O)c1ccc(/N=C2\C(Cl)=C(O)OC2OC(=O)c2ccccc2)cc1 (centres undefined)
Protein RecA
  EC50: 17.8 µM (active)
[6]
  AC50: 10.9 µM (active)

## CC(=O)Oc1ccc(-c2cccc(C(=O)N(C)c3ccc(O)cc3)c2)cc1
[5]
  AC50: 22.9 µM (active)

## Cc1cccc(S(=O)(=O)C(C#N)c2nc3ccccc3nc2N2CCCC2)c1 (centres undefined)
Protein RecA
  EC50: > 380 µM (inactive)

## O=C(NC(Cc1ccccc1)C(=O)NCc1ccccn1)c1ccco1 (centres undefined)
[2]
  EC50: > 150 µM (inactive)
[3]
  EC50: > 38 µM (not active)

## Cc1ccc(SCC(=O)Nc2ccc3c(c2)C(=O)N(C)C3=O)cc1
[2]
  EC50: > 150 µM (inactive)
[3]
  EC50: > 38 µM (not active)

## COc1ccc(C)cc1NC(=O)c1cc2cc3ccc(C)cc3nc2o1
Cytochrome P450 1A2
  AC50: 1.26 µM (inconclusive)
Cytochrome P450 2C9 [4]
  AC50: inconclusive

## CN(C)c1nc(Oc2ccc(/C=N/O)cc2)nc(N(C)C)n1
[5]
  AC50: 0.156 µM (active)

## N[C@@H](Cc1ncccn1)C(=O)O
Cytochrome P450 2C9 [4]
  AC50: inconclusive

## COc1ccc2nc(Nc3ccccc3OC)sc2c1
[5]
  AC50: 1.71 µM (active)

## O=C(NCc1ccccn1)C(=O)NCC(c1ccco1)N1CCN(c2ccc(F)cc2)CC1 (centres undefined)
[5]
  AC50: 13.2 µM (active)

## O=C(Nc1ccc(N2CCOCC2)cc1)Nc1ccc2nsnc2c1
Protein RecA
  EC50: > 380 µM (inactive)
[6]
  AC50: 170 µM (active)

## CC(=O)Nc1ccc(N2CCCCC2)cc1
Large T antigen
  IC50: 13.2 µM (active)
Cytochrome P450 3A4
  AC50: 0.251 µM (inconclusive)
[5]
  AC50: 2.96 µM (active)

## Cc1ccccc1-c1nc(C[S+]([O-])CC(=O)NCCCN(C)c2ccccc2)c(C)o1 (centres undefined)
Cytochrome P450 2C9 [4]
  AC50: inconclusive
Cytochrome P450 2D6
  AC50: 25.1 µM (inconclusive)

## COCc1n[nH]c2c1C(c1ccsc1)C(C#N)=C(N)O2 (centres undefined)
Protein RecA
  EC50: 4.35 µM (active)
[6]
  AC50: 21.1 µM (active)

## O=C1OCCC1Sc1nnc(-c2ccc(O)cc2)o1 (centres undefined)
Cytochrome P450 3A4
  AC50: 7.08 µM (inconclusive)
Cytochrome P450 2C9 [4]
  AC50: inconclusive

## O=C1CSC(c2ccccc2[N+](=O)[O-])N1c1cccc(F)c1 (centres undefined)
[5]
  AC50: 0.689 µM (active)

## O=C(NCc1ccco1)c1ccccc1NS(=O)(=O)c1ccc(Br)s1
Cytochrome P450 1A2
  AC50: 14.1 µM (inconclusive)
[2]
  EC50: > 160 µM (inactive)
[3]
  EC50: 2.35 µM (active)

## O=C(CCN1C(=O)c2cccc3cccc(c23)C1=O)N1CCN(Cc2ccc3c(c2)OCO3)CC1
Cytochrome P450 2C9 [4]
  AC50: inconclusive

## CCCOc1ccc(C(=O)OCCN(CC)CC)cc1N [PROPARACAINE]
Cytochrome P450 2C19
  AC50: inconclusive
Cytochrome P450 2D6
  AC50: 6.31 µM (inconclusive)

## CCCC(=O)Nc1ccc(N2CCN(CC)CC2)c(Cl)c1
Cytochrome P450 2C9 [7]
  AC50: 0.178 µM (inconclusive)
Cytochrome P450 2D6
  AC50: 20 µM (inconclusive)

## C/C(=N\NC(=O)CCC(=O)Nc1ccc(C)c(C)c1)C1CC1
[2]
  EC50: > 150 µM (inactive)
[3]
  EC50: > 38 µM (not active)

## CCC(=O)Nc1ccc2c(c1)OC[C@@H](C)N(Cc1ccccc1)C[C@@H](C)[C@H](OC)CN(C)C2=O
[1]
  AC50: 5.57 µM (active)

## COc1ccccc1NC(=O)N(C)C[C@H]1OCc2ccccc2-c2c(n(C)c3ccccc23)C(=O)N([C@@H](C)CO)C[C@@H]1C
[1]
  AC50: 4.25 µM (active)

## OC(c1ccccc1)(c1ccccc1)C1CCNCC1 [AZACYCLONOL]
Cytochrome P450 2D6
  AC50: 15.8 µM (inconclusive)

## CC(=O)Nc1ccc(-n2cc(-c3ccccc3)[nH]c2=S)cc1
[5]
  AC50: 6.42 µM (active)

## Cc1ccc(S(=O)(=O)NC(CC(C)C)C(=O)Oc2ccc3c4c(c(=O)oc3c2)CCC4)cc1 (centres undefined)
Cytochrome P450 2D6
  AC50: 15.8 µM (inconclusive)

## COc1ccc(NC(=O)c2ccc(-c3ccc(-c4noc(C)n4)cc3C)cc2)cc1N1CCN(C)CC1 [GR-127935]
Cytochrome P450 2D6
  AC50: 20 µM (inconclusive) and 39.8 µM (inconclusive)
